In ChEMBL document CHEMBL5608163, “Structure modification of anoplin for fighting resistant bacteria” (Eur J Med Chem, 2024):
Converted amounts (≈) assume the structure as drawn. Peptide text beside a SMILES is read from it.

Columns and labels:
Staphylococcus aureus [1] = experiment: Antibacterial activity against Staphylococcus aureus assessed as bacterial growth inhibition incubated for 20 hrs by broth microdilution assay; format: functional
Pseudomonas aeruginosa = experiment: Antibacterial activity against Pseudomonas aeruginosa assessed as reduction in bacterial growth incubated for 20 hrs by broth microdilution assay; format: functional
Escherichia coli [2] = experiment: Antibacterial activity against Escherichia coli assessed as reduction in bacterial growth incubated for 20 hrs by broth microdilution assay; format: functional
[3] = Hemolytic activity against Red blood cells (unknown origin) incubated for 1 hr by spectrophotometric analysis; format: toxicity, cell-based, Erythrocyte
Bacillus subtilis [4] = experiment: Antibacterial activity against Bacillus subtilis assessed as reduction in bacterial growth incubated for 20 hrs by broth microdilution assay; format: functional
Staphylococcus aureus [5] = experiment: Antibacterial activity against methicillin resistant Staphylococcus aureus ATCC 33591 assessed as inhibition of bacterial growth incubated for 16 to 20 hrs by broth micro-dilution method; format: functional; details: time 16-20 hrs
Enterococcus faecium [6] = experiment: Antibacterial activity against Vancomycin resistant Enterococcus faecium ATCC 700221 assessed as inhibition of bacterial growth incubated for 16 to 20 hrs by broth micro-dilution method; format: functional; details: time 16-20 hrs
Erythrocyte = experiment: Hemolytic activity in erythrocytes (unknown origin); format: toxicity, cell-based
Staphylococcus aureus [7] = experiment: Antimicrobial activity against Staphylococcus aureus ATCC 25923 assessed as reduction in microbial growth incubated for 18 to 20 hrs by Mueller-Hinton broth based microdilution method; format: functional; details: time 18-20 hrs
Bacillus subtilis [8] = experiment: Antimicrobial activity against Bacillus subtilis ATCC 23857 assessed as reduction in microbial growth incubated for 18 to 20 hrs by Mueller-Hinton broth based microdilution method; format: functional; details: time 18-20 hrs
Escherichia coli [9] = experiment: Antibacterial activity against Escherichia coli ATCC 25922 assessed as bacterial growth inhibition incubate for 18 to 20 hrs by MH broth based assay; format: functional; details: time 18-20 hrs
Enterococcus faecium [10] = experiment: Antimicrobial activity against Enterococcus faecium assessed as reduction in microbial growth incubated for 18 to 20 hrs by Mueller-Hinton broth based microdilution method; format: functional; details: time 18-20 hrs
[11] = Hemolytic activity in human RBC; format: toxicity, cell-based, Erythrocyte; details: red blood cells
[12] = Hemolytic activity in mouse RBC incubated for 1 hr; format: toxicity, cell-based, Erythrocyte; details: red blood cells

| Structure (SMILES) | MIC (Staphylococcus aureus [1]) [µM] | MIC (Pseudomonas aeruginosa) [µM] | MIC (Escherichia coli [2]) [µM] | MIC (Bacillus subtilis [4]) [µM] | HC50 at 1 h [3] [µM] | MIC (Staphylococcus aureus [5]) [µM] | MIC (Enterococcus faecium [6]) [µM] | HC10 (Erythrocyte) [µM] | also measured |
| --- | --- | --- | --- | --- | --- | --- | --- | --- | --- |
| CC(C)C[C@H](NC(=O)CN)C(=O)N[C@@H](CC(C)C)C(=O)N[C@@H](CCCCN)C(=O)N[C@@H](CCCNC(=N)N)C(=O)N[C@H](Cc1ccc2ccccc2c1)C(=O)N[C@@H](CCCCN)C(=O)N[C@H](C(=O)N[C@@H](CC(C)C)C(=O)N[C@@H](CC1CCCCC1)C(N)=O)[C@@H](C)O | – | – | – | – | – | 28.4 (≈ 36.3 µg/mL) | 3.2 (≈ 4.09 µg/mL) | 74.3 | – |
| CC[C@@H](C)[C@@H](NC(=O)[C@H](CCCCN)NC(=O)[C@H](CCCCN)NC(=O)[C@H](CC(C)C)NC(=O)[C@H](CC(C)C)NC(=O)CN)C(=O)N[C@@H](CCCCN)C(=O)N[C@H](C(=O)N[C@@H](CC(C)C)C(=O)N[C@@H](CC(C)C)C(N)=O)[C@@H](C)O | – | – | – | – | – | 1020 (≈ 1150 µg/mL) | 492 (≈ 554 µg/mL) | 7209 | – |
| CC[C@@H](C)[C@@H](NC(=O)[C@H](CCCCN)NC(=O)[C@H](CCCCN)NC(=O)[C@H](CC(C)C)NC(=O)[C@H](CC(C)C)NC(=O)CN)C(=O)N[C@@H](CCCCN)C(=O)N[C@@H](CCCCN)C(=O)N[C@@H](CC(C)C)C(=O)N[C@@H](CC(C)C)C(N)=O | – | – | – | – | – | 1020 (≈ 1180 µg/mL) | 341 (≈ 393 µg/mL) | 1962.4 | – |
| CC(C)C[C@H](NC(=O)[C@H](CC(C)C)NC(=O)[C@H](CCCCN)NC(=O)[C@H](CCCCN)NC(=O)[C@H](Cc1c[nH]c2ccccc12)NC(=O)[C@H](CCCNC(=N)N)NC(=O)[C@H](CCCCN)NC(=O)[C@H](CC(C)C)NC(=O)[C@H](CC(C)C)NC(=O)[C@@H](N)Cc1c[nH]c2ccccc12)C(N)=O | – | – | – | – | – | – | – | – | MIC (Staphylococcus aureus [7]): 32 µM; MIC (Bacillus subtilis [8]): 16 µM; MIC (Escherichia coli [9]): 64 µM (≈ 88.5 µg/mL); MIC (Enterococcus faecium [10]): 16 µM; HC50 [11]: > 200 µM; HC50 at 1 h [12]: > 200 µM |
| CC(C)C[C@H](NC(=O)[C@H](CC(C)C)NC(=O)[C@H](CCCCN)NC(=O)[C@H](CCCCN)NC(=O)[C@@H](Cc1ccc2ccccc2c1)NC(=O)[C@H](CCCNC(=N)N)NC(=O)[C@H](CCCCN)NC(=O)[C@H](CC(C)C)NC(=O)[C@H](CC1CCCCC1)NC(=O)CN)C(=O)O | – | – | – | – | – | 9.5 (≈ 12.4 µg/mL) | 3.2 (≈ 4.18 µg/mL) | 27 | – |

More lines, main results first:

| MIC (Staphylococcus aureus [1]) [µM] | MIC (Pseudomonas aeruginosa) [µM] | MIC (Escherichia coli [2]) [µM] | MIC (Bacillus subtilis [4]) [µM] | Structure (SMILES) | HC50 at 1 h [3] [µM] | MIC (Staphylococcus aureus [5]) [µM] | MIC (Enterococcus faecium [6]) [µM] | HC10 (Erythrocyte) [µM] | also measured |
| --- | --- | --- | --- | --- | --- | --- | --- | --- | --- |
| 4 (≈ 10.9 µg/mL) | 2 (≈ 5.46 µg/mL) | 2 (≈ 5.46 µg/mL) | 2 (≈ 5.46 µg/mL) | CC[C@H](C)[C@H](NC(=O)CCCCCNC(=O)[C@H](CC(C)C)NC(=O)[C@H](CC(C)C)NC(=O)[C@@H](NC(=O)[C@H](CCCCN)NC(=O)[C@@H](NC(=O)[C@H](CCCNC(=N)N)NC(=O)[C@H](CCCCN)NC(=O)[C@H](CC(C)C)NC(=O)[C@H](CC(C)C)NC(=O)CN)[C@@H](C)CC)[C@@H](C)O)C(=O)N[C@@H](CC(N)=O)C(=O)N[C@@H](CC(C)C)C(=O)N[C@@H](CCCCN)C(=O)N[C@@H](C)C(=O)N[C@@H](CC(C)C)C(=O)N[C@@H](C)C(=O)N[C@@H](C)C(=O)N[C@@H](CC(C)C)C(=O)N[C@@H](C)C(=O)N[C@@H](CCCCN)C(=O)N[C@@H](CCCCN)C(=O)N[C@H](C(=O)N[C@@H](CC(C)C)C(N)=O)[C@@H](C)CC | 60.2 | – | – | – | – |
| 8 (≈ 21.8 µg/mL) | 16 (≈ 43.7 µg/mL) | 8 (≈ 21.8 µg/mL) | 8 (≈ 21.8 µg/mL) | CC[C@H](C)[C@H](NC(=O)[C@H](CCCCN)NC(=O)[C@H](CCCCN)NC(=O)[C@H](C)NC(=O)[C@H](CC(C)C)NC(=O)[C@H](C)NC(=O)[C@H](C)NC(=O)[C@H](CC(C)C)NC(=O)[C@H](C)NC(=O)[C@H](CCCCN)NC(=O)[C@H](CC(C)C)NC(=O)[C@H](CC(N)=O)NC(=O)[C@@H](NC(=O)[C@H](CC(C)C)NC(=O)[C@H](CC(C)C)NC(=O)[C@H](CC(C)C)NC(=O)[C@@H](NC(=O)[C@H](CCCCN)NC(=O)[C@@H](NC(=O)[C@H](CCCNC(=N)N)NC(=O)[C@H](CCCCN)NC(=O)[C@H](CC(C)C)NC(=O)[C@H](CC(C)C)NC(=O)CN)[C@@H](C)CC)[C@@H](C)O)[C@@H](C)CC)C(=O)N[C@@H](CC(C)C)C(N)=O (H-GLLKRIKTLLLINLKALAALAKKIL-NH2) | 35.6 | – | – | – | – |
| 4 (≈ 10.9 µg/mL) | 2 (≈ 5.43 µg/mL) | 2 (≈ 5.43 µg/mL) | 2 (≈ 5.43 µg/mL) | CC[C@H](C)[C@H](NC(=O)[C@H](CCCCN)NC(=O)[C@H](CCCCN)NC(=O)[C@H](C)NC(=O)[C@H](CC(C)C)NC(=O)[C@H](C)NC(=O)[C@H](C)NC(=O)[C@H](CC(C)C)NC(=O)[C@H](C)NC(=O)[C@H](CCCCN)NC(=O)[C@H](CC(C)C)NC(=O)[C@H](CC(N)=O)NC(=O)[C@@H](NC(=O)[C@@H]1CCCN1C(=O)[C@H](CC(C)C)NC(=O)[C@H](CC(C)C)NC(=O)[C@@H](NC(=O)[C@H](CCCCN)NC(=O)[C@@H](NC(=O)[C@H](CCCNC(=N)N)NC(=O)[C@H](CCCCN)NC(=O)[C@H](CC(C)C)NC(=O)[C@H](CC(C)C)NC(=O)CN)[C@@H](C)CC)[C@@H](C)O)[C@@H](C)CC)C(=O)N[C@@H](CC(C)C)C(N)=O (H-GLLKRIKTLLPINLKALAALAKKIL-NH2) | 83.8 | – | – | – | – |
